Experimental data from US20150344466A1 (SUMITOMO CHEMICAL COMPANY, LIMITED, priority 2013, published 2015).

Tests used:
Format in all cases: in vivo
[1] = tested on: Blattella germanica; assay: Knockdown spray test on Blattella germanica, 0.1% w/v oil formulation (Test Example 2); conditions: topical, 0.25 h, active ingredient 0.1% w/v, 1.5 ml sprayed, within 15 minutes, read-out: knockdown rate of the test insects within 15 minutes
Summary of the method: (§1)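 Ten German cockroaches (5 males, 5 females) in a mesh-bottomed, butter-walled container were sprayed with 1.5 ml test solution from 60 cm at 0.42 kg/cm^2 inside a chamber.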

[2] = tested on: Culex pipiens pallens; assay: Knockdown spray test on adult Culex pipiens pallens (Test Example 4); conditions: topical, 0.25 h, active ingredient 0.1% w/v, 0.5 ml sprayed, within 15 minutes, read-out: knockdown rate of the test insects within 15 minutes
Summary of the method: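 Ten adult mosquitoes in a gauze-covered cup inside a 46×46×70 cm chamber were sprayed with 0.5 ml of test solution from 30 cm at 0.4 kg/cm^2. The cup was removed at once, and knocked-down insects were counted at 2, 5 and 15 min; knockdown rate (%) = knocked-down/tested ×100.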

[3] = tested on: Plutella xylostella; assay: Foliar spray test on Plutella xylostella on cabbage (Test Example 10); conditions: 120 h, third instar larvae of Plutella xylostella on cabbage, 500 ppm spray 20 ml/cup, after five days, read-out: controlling value
Method: On the other hand, cabbage was planted in a polyethylene cup, and grown until the third-fourth true leaf was spread. The test spray solution was sprayed to the cabbage at a ratio of 20 ml/cup. After the drug solution sprayed on the cabbage was dried, 10 third instar larvae of Plutella xylostella were allowed to parasitize the cabbage. After five days, the number of Plutella xylostella was investigated, and the controlling value was calculated according to the following standard. Controlling value (%)={1−(Cb×Tai)/(Cai×Tb)}×100 In the equation, the symbols represent as follows. Cb: the number of insects in a non-treated section before treatment Cai: the number of insects in a non-treated section on observation Tb: the number of insects in a treated section before treatment Tai: the number of insects in a treated section on observation

[4] = tested on: Spodoptera litura; assay: Foliar spray test on Spodoptera litura on cabbage (Test Example 11); conditions: 96 h, fourth instar larvae of Spodoptera litura on cabbage, 500 ppm spray 20 ml/cup, after 4 days, read-out: controlling value
Method: On the other hand, cabbage was planted in a polyethylene cup, and grown until the third-fourth true leaf was spread. The test spray solution was sprayed to the cabbage at a ratio of 20 ml/cup. After the drug solution sprayed orn the cabbage was dried, 10 fourth instar larvae of Spodoptera litura were allowed to parasitize the cabbage. After 4 days, the number of surviving Spodoptera litura on the cabbage leaves was examined, and the controlling value was calculated according to the following equation. Controlling value (%)={1−(Cb×Tai)/([…])}×100 In the equation, the symbols represent as follows. Cb: the number of insects in a non-treated section before treatment Cai: the number of insects in a non-treated section on observation Tb: the number of insects in a treated section before treatment Tai: the number of insects in a treated section on observation

[5] = tested on: Musca domestica; assay: Filter paper/sucrose bait death rate test on Musca domestica (Test Example 5); conditions: female imagoes of Musca domestica, 0.7 ml on filter paper, after 24 hours
Summary of the method: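 Filter paper in a 5.5 cm cup dosed with 0.7 ml test drug solution, with 30 mg sucrose as bait. Ten female adult houseflies released and cup sealed. Dead insects counted after 24 h; death rate (%) = dead/tested × 100.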

[6] = tested on: Culex pipiens pallens; assay: Larvicidal test on Culex pipiens pallens, eight days (Test Example 7); conditions: 192 h; last-instar larvae of Culex pipiens pallens; 3.5 ppm in water; eight days later; read-out: death rate
Method: (§2) 20 last-instar larvae of Culex pipiens pallens were released into a liquid to which 0.7 ml of the above test drug solution was added to 100 ml of ion-exchanged water (a concentration of the active ingredient of 3.5 ppm). Eight days later, the life and death of the Culex pipiens pallens was examined, and the death rate was calculated. The death rate was calculated by the following equation.
(§3) Death rate (%)=(Number of dead insects/Number of tested insects)×100

[7] = tested on: Blattella germanica; assay: Knockdown spray test on Blattella germanica, 2.0% w/v oil formulation (Test Example 1); conditions: topical, 0.25 h, active ingredient 2.0% w/v, 1.5 ml sprayed, within 15 minutes, read-out: knockdown rate of the test insects within 15 minutes
Summary of the method: as §1

[8] = tested on: Musca domestica; assay: Knockdown spray test on adult Musca domestica (Test Example 3); conditions: topical, 0.25 h, active ingredient 2.0% w/v, 0.5 ml sprayed, within 15 minutes, read-out: knockdown rate of the test insects within 15 minutes
Method: Ten adult Musca domestica (five males and five females) were released in a polyethylene cup (bottom diameter: 10.6 cm), and the cup was covered with a 16-mesh nylon gauze. The polyethylene cup was placed on the bottom of a test chamber (bottom: 46 cm×46 cm, height: 70 cm). From a height of 30 cm above the upper surface of the polyethylene cup, 0.5 ml of the test drug solution was sprayed using a spray gun (a spraying pressure of 0.9 kg/cm^2). Immediately after spraying, the cup was taken out from the test chamber, and after 2 minutes, 5 minutes and 15 minutes, the number of knocked-down insects was counted to obtain a knockdown rate. The knockdown rate was calculated by the following equation.
Knockdown Rate (%)=(Number of Knocked-down Insects/Number of Tested Insects)×100

[9] = tested on: Culex pipiens pallens; assay: Larvicidal test on Culex pipiens pallens, one day (Test Example 6); conditions: 24 h; last-instar larvae of Culex pipiens pallens; 3.5 ppm in water; one day later; read-out: death rate
Method: Each of the formulations of Compounds of Present Invention (39), (63), (71), (72), (92), (93), (95), (106), (150), (171), (170), (181), (182), (183), (187), (188), (189), (190), (191), (192), (200), (201), (201), (234), (246), (290) and (299) obtained in Formulation Example 15 was diluted with water, so as to have a concentration of the active ingredient of 500 ppm, to prepare a test drug solution.
as §2, with “One day” for “Eight days”
as §3

Structure (SMILES) | pest or weed control at 0.1 % strength [1] [%] | pest or weed control at 0.1 % strength [2] [%] | pest or weed control at 500 ppm [3] [%] | pest or weed control at 500 ppm [4] [%] | pest or weed control at 500 ppm [5] [%] | pest or weed control at 3.5 ppm [6] [%] | pest or weed control at 2 % strength [7] [%] | pest or weed control at 2 % strength [8] [%] | pest or weed control at 3.5 ppm [9] [%]
O=C(NCC1CCOC1)c1cc(Cc2cccc(F)c2)on1 (stereo not shown) [(318), N-(tetrahydrofuran-3-ylmethyl)-5-(3-fluorobenzyl)isoxazole-3-carboxamide] | ≥ 80 | ≥ 80 | ≥ 90 | ≥ 80 | – | – | – | – | –
O=C(NCC1CCOC1)c1cc(Cc2ccc(OC(F)(F)F)cc2)on1 (stereo not shown) [(315), N-(tetrahydrofuran-3-ylmethyl)-5-(4-trifluoromethoxybenzyl) isoxazole-3-carboxamide] | – | ≥ 80 | – | ≥ 80 | ≥ 90 | ≥ 90 | – | – | –
O=C(NCC1CCOC1)c1cc(Cc2ccc(F)c(F)c2)on1 (stereo not shown) [(306), N-(tetrahydrofuran-3-ylmethyl)-5-(3,4-difluorobenzyl)isoxazole-3-carboxamide] | ≥ 80 | ≥ 80 | ≥ 90 | ≥ 80 | ≥ 90 | – | – | – | –
O=C(NCC1CCOC1)c1cc(COCc2ccc3ccccc3c2)on1 (stereo not shown) [(20), N-(tetrahydrofuran-3-ylmethyl)-5-(2-naphthylmethoxymethyl)isoxazole-3-carboxamide] | – | ≥ 80 | – | ≥ 80 | – | ≥ 90 | ≥ 80 | ≥ 80 | –
O=C(NCC1CCOCC1)c1cc(COCc2ccc(Cl)cc2)on1 [(71), N-(tetrahydropyran-4-ylmethyl)-5-(4-chlorobenzyloxymethyl)isoxazole-3-carboxamide] | – | ≥ 80 | ≥ 90 | – | – | – | – | – | ≥ 90
O=C(NCC1CCOCC1)c1cc(COc2ccc(C(F)(F)F)cc2)on1 [(189), N-(tetrahydropyran-4-ylmethyl)-5-(4-trifluoromethylphenoxymethyl)isoxazole-3-carboxamide] | – | ≥ 80 | – | – | – | ≥ 90 | – | – | ≥ 90
O=C(NCC1CCOCC1)c1cc(COc2ccc(Cl)cc2)on1 [(181), N-(tetrahydropyran-4-ylmethyl)-5-[(4-chlorophenoxy)methyl]isoxazole-3-carboxamide] | – | ≥ 80 | – | – | – | ≥ 90 | – | – | ≥ 90
O=C(NCC1CCOC1)c1cc(COCc2ccc(Br)c(F)c2)on1 (stereo not shown) [(272), N-(tetrahydrofuran-3-ylmethyl)-5-(4-bromo-3-fluorobenzyloxymethyl)isoxazole-3-carboxamide] | – | ≥ 80 | ≥ 90 | ≥ 80 | – | – | – | – | –
O=C(NCC1CCOC1)c1cc(Cc2ccc3c(c2)OCO3)on1 (stereo not shown) [(299), N-(tetrahydrofuran-3-ylmethyl)-5-(1,3-benzodioxolan-5-ylmethyl)isoxazole-3-carboxamide] | – | ≥ 80 | – | – | ≥ 90 | – | – | – | ≥ 90
O=C(NCC1CCOC1)c1cc(COc2cccc(C(F)(F)F)c2)on1 (stereo not shown) [(198), N-(tetrahydrofuran-3-ylmethyl)-5-(3-trifluoromethylphenoxymethyl)isoxazole-3-carboxamide] | ≥ 80 | ≥ 80 | – | ≥ 80 | – | ≥ 90 | – | – | –
O=C(NCC1CCOC1)c1cc(COCc2ccc(Cl)cc2F)on1 (stereo not shown) [(260), N-(tetrahydrofuran-3-ylmethyl)-5-(4-chloro-2-fluorobenzyloxymethyl)isoxazole-3-carboxamide] | ≥ 80 | ≥ 80 | – | ≥ 80 | ≥ 90 | ≥ 90 | – | – | –
O=C(NCC1CCOC1)c1cc(COCc2ccc(SC(F)(F)F)cc2)on1 (stereo not shown) [(95), N-(tetrahydrofuran-3-ylmethyl)-5-(4-trifluoromethylthiobenzyloxymethyl)isoxazole-3-carboxamide] | – | ≥ 80 | – | – | – | ≥ 90 | – | – | ≥ 90
O=C(NCC1CCOC1)c1cc(COCc2cccc(Br)c2)on1 (stereo not shown) [(76), N-(tetrahydrofuran-3-ylmethyl)-5-[(3-bromobenzyl)oxymethyl]isoxazole-3-carboxamide] | ≥ 80 | ≥ 80 | ≥ 90 | ≥ 80 | ≥ 90 | ≥ 90 | – | – | –
O=C(NCC1CCOCC1)c1cc(COCc2cccc(Cl)c2)on1 [(69), N-(tetrahydropyran-4-ylmethyl)-5-(3-chlorobenzyloxymethyl)isoxazole-3-carboxamide] | ≥ 80 | ≥ 80 | ≥ 90 | ≥ 80 | ≥ 90 | – | – | – | –
O=C(NCC1CCOCC1)c1cc(COCc2cccc(Br)c2)on1 [(77), N-(tetrahydropyran-4-ylmethyl)-5-(3-bromobenzyloxymethyl)isoxazole-3-carboxamide] | ≥ 80 | ≥ 80 | – | ≥ 80 | – | ≥ 90 | – | – | –
O=C(NCC1CCOC1)c1cc(COCc2ccc3ccccc3c2F)on1 (stereo not shown) [(258), N-(tetrahydrofuran-3-ylmethyl)-5-(1-fluoro-2-naphthylmethoxymethyl)isoxazole-3-carboxamide] | ≥ 80 | ≥ 80 | ≥ 90 | ≥ 80 | – | ≥ 90 | – | – | –
O=C(NCC1CCOCC1)c1cc(COCc2cccc(OC(F)(F)F)c2)on1 [(79)] | ≥ 80 | ≥ 80 | ≥ 90 | ≥ 80 | ≥ 90 | – | – | – | –
